US20240245677A1, “SELECTED COMPOUNDS FOR TARGETED DEGRADATION OF BRD9” (C4 THERAPEUTICS, INC., priority 2021, published 2024)

Key:
SW982 cells = assay: SW982 in vitro viability assay (CellTiter-Glo, 144 hours); format: cell-based, human
Protocol: SW982 cells were obtained from ATCC (Catalog No. HTB-93, Manassas, VA, USA) and maintained in DMEM medium (Catalog No. 12430112, ThermoFisher Scientific, Waltham, MA, USA) supplemented with 10% fetal bovine serum (FBS) (Catalog No. 16000-044, Gibco, Grand Island, NY, USA) at 37° C. in an atmosphere of 5% CO2 in air. The cells were routinely sub-cultured to maintain cell density between 3×10^5-1.5×10^6 cells/mL, not to exceed 20 passages. The cells growing in an exponential growth phase were harvested by centrifugation at 1000 rpm and resuspended in fresh growth media. An aliquot was diluted 2× with Trypan Blue solution 0.4% (Catalog No. 15250061, ThermoFisher Scientific, Waltham, MA, USA) and cell count was determined. Cell concentration was adjusted with growth media to 1.0×10^4 cells/mL.
Compound 1 was prepared by dissolving neat compound in DMSO (Catalog No. D8418, Sigma-Aldrich, Inc., St. Louis, MO, USA) to generate 10 mM stock solution and stored at −20° C. 10 mM DMSO stock solution was serially diluted (half log) in DMSO to generate 10-point dose series (10000, 3160, 1000, 316, 100, 31.6, 10, 3.16, 1, 0.32 μM) in acoustic ready 384-well low dead volume microplates (Catalog No. LP-0200, Beckman Coulter Life Sciences, Indianapolis, IN, USA). 50 nL of serially diluted compound solutions were dispensed using the Echo 550 Acoustic Liquid Handler Handler (Beckman Coulter Life Sciences, Indianapolis, IN, USA) in duplicate to each 384-well black TC-treated microplate (Catalog No. 3571, Corning, Glendale, CA, USA). 50 nL DMSO was transferred to all control wells.
50 μL SW982 cells suspended in growth media at 1.0×10^4 cells/mL (500 cells/well) were dispensed using a Multidrop Combi Reagent Dispenser (Catalog No. 5840300, ThermoFisher Scientific, Waltham, MA, USA) to each well of 384-well black TC-treated microplates containing duplicate concentration range of test compounds and DMSO controls. Plates were spun briefly at 1000 rpm and cells were incubated at 37° C., 5% CO2 for 144 hours. Final concentration of DMSO was 0.1% for all samples.
Additional cell plates (TO plates) were prepared by dispensing cells into a blank 384-well black TC-treated microplate to represent cytostatic controls and processed for viability detection immediately after cell dispensing.
SW982 cell viability was determined based on quantification of ATP using CellTiter-Glo® 2.0 luminescent assay kit (Catalog No. G9243, Promega, Madison, WI, USA), which signals the presence of metabolically active cells. On Day 0 (Time 0) and Day 6 (144 hours) 25 μL CellTiter-Glo® reagent was added to each well of cell plates except the wells in column 24 and the luminescence was measured after 4 hours incubation at room temperature using an EnVision® Multilabel Reader (Catalog No. 2104-0010, Perkin Elmer Inc., Dumfries, VA, USA). Column 24 (cells without CellTiter-Glo® addition) was used as plate background or positive control (P). Cytostatic control value (CT0) was computed from TO plate read using untreated cell signals (UT=0) and positive control signals (PT=0) as below.
Percent response of compound-treated samples at a time point T were calculated by normalizing the signal with P and DMSO treated negative (N) controls on the same microtiter plate and the CT0 control:
The Response % is thus 100% if the CellTiter-Glo® signal equals that of the DMSO treated controls (i.e., normal cell growth), 0% if it equals that of untreated cell at TO (i.e., cytostasis), and −100% if it equals the no CellTiter-Glo® reagent controls (i.e., complete cytotoxicity).
Curve fit and GI50 determination was performed by 4 parametric logistic fit analysis using software such as GraphPad Prism software (GraphPad Software, LLC, San Diego, CA, USA). The fit was performed through minimization of the root mean squared error between observed and calculated values of the four-parameter logistic equation using the simplex optimizer of the Apache Commons Math library. […]

G402 tumor xenografts = assay: Antitumor activity in G402 malignant rhabdoid tumor xenograft model; format: in vivo, mouse; conditions: for TGI: day 21
Protocol: To evaluate the efficacy potential of Compound 1 in the malignant rhabdoid tumor setting, BALB/c nude female mice bearing G402 tumor xenografts (WuXi AppTec, Shanghai, China) were treated with a daily regimen of escalating doses of Compound 1 (10 mg/kg, 30 mg/kg, or 50 mg/kg) or vehicle via oral gavage for 21 days (FIG. 3). Compound 1 was tolerated in this study with all mice except two losing no greater than 8% body weight (FIG. 4). […] One mouse in the 50 mg/kg QD group also experienced accumulating body weight loss to end the study at −17.3% but was never taken off study. […] TGI and One-way ANOVA analyses were performed on day 21, the last day all animals were on study.
The G402 tumor cells were maintained in vitro in McCoy's 5a medium supplemented with 10% fetal bovine serum and 1% Penicillin-Streptomycin at 37° C. in an atmosphere of 5% CO2 in air. The tumor cells were routinely subcultured twice weekly. The cells growing in an exponential growth phase were harvested and counted for tumor inoculation.
Each mouse was inoculated subcutaneously at the right flank with G402 cells (10×10^6) in 0.2 mL of PBS supplemented with Matrigel (PBS:Matrigel=1:1) for tumor development. For efficacy part, the treatments were started when the average tumor volume reaches 175 mm^3.

Work on COc1cc(-c2cn(C)c(=O)c(C)c2C)cc(OC)c1CN1CC[C@H](N2CCN(c3ccc(N[C@H]4CCC(=O)NC4=O)cc3F)CC2)C(F)(F)C1 [Compound 1, (S)-3-((4-(4-((S)-1-(2,6-dimethoxy-4-(1,4,5-trimethyl-6-oxo-1,6-dihydropyridin-3-yl)benzyl)-3,3-difluoropiperidin-4-yl)piperazin-1-yl)-3-fluorophenyl)amino)-piperidine-2,6-dione] yielded a viability at 0.000318 µM (SW982 cells; Homo sapiens, SW982, 144 h, 0.318 nM, read-out: % SW982 Viability Relative to Vehicle Control at 144 hr, Mean) of 96.2%, a viability at 0.00101 µM (SW982 cells; Homo sapiens, SW982, 144 h, 1.01 nM, read-out: % SW982 Viability Relative to Vehicle Control at 144 hr, Mean) of 99.6% and a viability at 0.00317 µM (SW982 cells; Homo sapiens, SW982, 144 h, 3.17 nM, read-out: % SW982 Viability Relative to Vehicle Control at 144 hr, Mean) of 97.2%. For the same molecule, the viability at 0.01 µM (SW982 cells; Homo sapiens, SW982, 144 h, 10.0 nM, read-out: % SW982 Viability Relative to Vehicle Control at 144 hr, Mean) was 101%, the viability at 0.0317 µM (SW982 cells; Homo sapiens, SW982, 144 h, 31.7 nM, read-out: % SW982 Viability Relative to Vehicle Control at 144 hr, Mean) was 95.7% and the viability at 0.1 µM (SW982 cells; Homo sapiens, SW982, 144 h, 100 nM, read-out: % SW982 Viability Relative to Vehicle Control at 144 hr, Mean) was 96.4%. For the same molecule, the viability at 0.317 µM (SW982 cells; Homo sapiens, SW982, 144 h, 317 nM, read-out: % SW982 Viability Relative to Vehicle Control at 144 hr, Mean) was 91.9%, the viability at 1 µM (SW982 cells; Homo sapiens, SW982, 144 h, 1000 nM, read-out: % SW982 Viability Relative to Vehicle Control at 144 hr, Mean) was 88.6% and the viability at 3.161 µM (SW982 cells; Homo sapiens, SW982, 144 h, 3161 nM, read-out: % SW982 Viability Relative to Vehicle Control at 144 hr, Mean) was 85.7%. The viability at 9.99 µM (SW982 cells; Homo sapiens, SW982, 144 h, 9990 nM, read-out: % SW982 Viability Relative to Vehicle Control at 144 hr, Mean) was 84.2%, the GI50 (SW982 cells; Homo sapiens, SW982 cells, 144-hour treatment, read-out: Geometric Mean GI50) was > 10 µM and the Emax (SW982 cells; Homo sapiens, SW982 cells, 144-hour treatment, read-out: Mean Emax (%) ± SD) was 84.2 ± 4.6%. For the same molecule, the “growth inhibition at the highest concentration tested” value (SW982 cells; SW982 cells, 144-hour treatment) was < 20%, the “body weight loss, one mouse” value (G402 tumor xenografts; 10 mg/kg QD group) was “over 15%” and the TGI (G402 tumor xenografts; 30 mg/kg/day oral) was 73%. The “body weight change at end of study, one mouse” value (G402 tumor xenografts; 50 mg/kg QD group) was −17.3%, the TGI (G402 tumor xenografts; 50 mg/kg/day oral) was 78% and the “body weight loss, all mice except two” value (G402 tumor xenografts; 10, 30 or 50 mg/kg daily for 21 days) was ≤ 8%.
